Tests used:
[1] = molecular target: T1, αS aggregation (Homo sapiens, UniProt P37840); experiment: SDS-PAGE analysis of soluble and insoluble αS fractions; format: biochemical; conditions: 100 µM αS, equimolar SK-129, four days
T1 construct: made in house; host or cells: Escherichia coli BL21(DE3), periplasm
Description: The solution of αS (100 µM) in the absence and presence of SK-129 were prepared in the aggregation buffer (20 mM NaCl, 20 mM NaPi, pH 6.5) and kept at 37 °C and constant shaking at 1200 rpm until the aggregation of αS plateaued (four days). The solutions were separated into soluble and insoluble fractions of αS by centrifugation at 22,000 × g for 20 min. Afterwards, 2 x Laemmli protein sample loading buffer (Biorad, Hercules, CA) was added to the fractions and boiled at 95 °C for 5 min and ran on a 12% Mini-PROTEAN precast protein gel (Biorad, Hercules, CA). In addition, we also quantified SDS-PAGE gel band intensities using ImageJ software. The gel-based experiments were repeated three times (n = 3) independently to ensure the reproducibility of the data. All the uncropped gels (from Main manuscript and Supplementary Figures) have been included in the Supplementary Data File as Supplementary Fig. 29.

[2] = molecular target: T2, αS (Homo sapiens, UniProt P37840); experiment: FP displacement titration of αS-SK-129F complex with SK-129; format: binding; conditions: displacement of SK-129F from αS-SK-129F complex by SK-129, n = 3
T2 construct: made in house; host or cells: Escherichia coli BL21(DE3), periplasm
Description: All Fluorescence Polarization (FP) experiments were conducted on a Varian Cary Eclipse fluorometer (Agilent, Santa Clara, CA) equipped with a polarizer. The stock solutions of αS, 1 mM or 100 μM in 1x PBS buffer, were serially added into a solution of 10 μM SK-129F (300 μL in 1x PBS buffer) while stirring in a quartz cuvette (Fireflysci, Staten Island, NY). All FP measurements were conducted in triplicates in 20 mM Tris, 100 mM NaCl, pH 7.2 at 20 °C. The excitation and emissions wavelengths were set at 490 nm and 520 nm, respectively. Each titration was equilibrated for five min before measurements were taken for the next addition of αS solution. The addition of αS solution was continuous until no more change in the FP signal was observed. Similar conditions were used for the titration of various αS mutants and Aβ42 peptide against SK-129F. […] The polarization of each point was calculated using Eq. 1:1 FP=I∥−I⊥/I∥+I⊥ Where I∥ is fluorescence intensity parallel to the excitation plane and I⊥ is fluorescence intensity perpendicular to the excitation plane. […]
affinity of SK-129 against αS. The fluorescence polarization titrations between SK129 and the preformed saturated complex of SK129 F-αS were conducted three times and each point in titrations was the average of three data points. […]

[3] = molecular target: T3, αS1 seed-catalyzed aggregation (Homo sapiens, UniProt P37840, DEL6-12); experiment: Seed-catalyzed ThT aggregation assay (10% WT αS seeds), αS1; format: biochemical; conditions: αS1, equimolar ratio
T3 construct: made in house; host or cells: Escherichia coli BL21(DE3)
Description: Seed-catalyzed αS aggregation assay was performed similarly to a previously described protocol. Briefly, 100 μM monomeric WT αS solution (200 μL, in 1x PBS buffer) was placed into a ThermoMixer (Eppendorf, Hamberg, Germany) and shook for five days at a rate of […] and 37 °C. The solution was sonicated for 10 min and used as αS seeds. The seed-catalyzed aggregation of WT αS/ αS variants was performed by adding αS seeds (10% seeds, αS in monomeric concentration, v/v) into 140 μL of fresh 100 μM WT αS/ αS variants solution and aggregation was started with constant shaking at a rate of […] and 37 °C. The aggregation of proteins was monitored at the indicated times (See the main manuscript) using the above-mentioned method.
The ThT aggregation assay for each protein (WT αS and αS variants) in the presence of SK-129 was carried out the above-mentioned method. SK-129 (from 10 mM stock solution in DMSO) was added at an equimolar ratio (1% DMSO, v/v) to the proteins at the start of the aggregation experiment. The concentration of DMSO was kept constant (1%, v/v) in protein (WT αS and αS variants), control, and protein+molecule solutions. The kinetic profiles of protein aggregation were processed using OriginPro software (Version 9.1). Kinetic curves were fit using a built-in sigmoidal fit in the OriginLab.

[4] = molecular target: T4, αS oligomers (Homo sapiens, UniProt P37840); experiment: Gel shift assay of αS supernatant (oligomers); format: biochemical; conditions: 70 µM αS, 0.1, 0.2, 0.5 mol eq. ligand, 7 days
T4 construct: made in house; host or cells: Escherichia coli BL21(DE3), periplasm
Description: Supplementary Fig. 8. Gel-shift images of αS (70 µM) incubated in the absence (lane 2) and presence of SK-129 (a) and EGCG (b) at sub-stoichiometric ratios (0.1, 0.2, 0.5 mol eq.) for 7 days at 370C with constant shaking. The solutions of αS in the absence and presence of ligands were centrifuged and the supernatant was used for the gel shift assay. The arrows indicate the formation of various αS structures. The gel shift assay of the supernatant of the αS aggregated […]
fibers. Most of the αS was found in the supernatant as a mo nomer and a dimer in the presence of […]
their formation. The gel experiments were conducted at least two times to confirm the reproducibility of the data.
(1 picture or pasted object on this page, not shown here)

## COC(=O)c1cc(OCC(=O)O)c2cccc(NC(=O)c3cc(OC(C)C)c4cccc(NC(=O)c5cc(OCC(=O)O)c6cccc(NC(=O)c7cc(OC(C)C)c8cccc([N+](=O)[O-])c8n7)c6n5)c4n3)c2n1 [SK-129]
[1]
  αS fraction detected by SDS-PAGE: predominantly detected in the soluble fraction
[2]
  Kd: 720 ± 60 nM
[3]
  effect on seed-catalyzed aggregation: wholly suppressed
[4]
  αS species in gel shift assay: potently inhibits αS aggregation
